Measured values reported in patent US8759481B2, “Peptide vaccines for cancers expressing tumor-associated antigens” (Oncotherapy Science, Inc., priority 2007, dated 2014).
“Also recorded” adds a separate entry of the source. Ends that are not written are not given here.

What was measured:
Type in all cases: cell-based, human
[1] = test system: peptide-pulsed A24-LCL cells; experiment: CTL line establishment, IFN-gamma ELISA; conditions: HLA-A24 peptides; vs target without peptide pulse
Procedure, shortened: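 CTL lines were expanded with MMC-inactivated B-lymphoblastoid feeders, 40 ng/ml anti-CD3 and IL-2 in AIM-V/5% AS. IFN-gamma ELISPOT identified specific wells, and ELISA determined established lines, using responders stimulated by peptide-pulsed A24-LCL or T2 cells at 1×10^4/well.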

[2] = test system: COS7 transfected with full length CDH3 gene and HLA-A*2402; experiment: Specific CTL activity against transfected target cells; conditions: CTL clones raised by the peptide; vs single transfectants; listed as CDH3-A24-10-807
Protocol: (§1) Briefly, peptide-pulsed A24-LCL or T2 cell (1×10^4/well) was prepared as stimulator cells. Cultured Cells in 48 wells or CTL clones after limiting dilution were used as responder cells. IFN-gamma ELISPOT assay and ELISA assay were performed under manufacture procedure.
(§2) The cDNA encoding an open reading frame of target genes or HLA-A02 or HLA-A24 was amplified by PCR. The PCR-amplified product was cloned into pcDNA3.1 myc-His vector (Invitrogen). The plasmids were transfected into the target cells, HLA-A02 and HLA-A24-null normal human cell line COS7 or 293T using lipofectamine (Invitrogen) according to the manufacturer's recommended procedures. Alternatively, the plasmid contained the target genes were transfected into A24-LCL by electroporation using GenePulserII (Biorad). Briefly, 2.5×10^6 A24-LCL cells were pulsed with 10 mcg prasmid at 140V and 1000 micro F. After 2 days from transfection, the transfected cells were treated with Cell dissociation solution and used as the target cells for CTL activity assay.
The established CTL line raised against these peptides were examined for their ability to recognize the target cells expressing CDH3 and HLA-A*2402. […] COS7 transfected with full length CDH3 but not HLA-A*2402 and COS7 transfected with HLA-A*2402 but not full length CDH3 were prepared as controls.

[3] = test system: peptide-pulsed A24-LCL cells; experiment: CTL clones by limiting dilution, specific CTL activity; conditions: HLA-A24 peptides; vs target without peptide pulse
Protocol: (§3) The dilutions were made to have 0.3, 1, and 3 CTLs/well in 96 round-bottomed micro titer plate (Nalge Nunc International). CTLs were cultured with 7×10^4 cells/well of 2 kinds of human B-lymphoblastoid cell lines, 30 ng/ml of anti-CD3 antibody, and 125 U/ml of IL-2 in total of 150 micro 1/well of AIM-V containing 5% AS. 50 micro 1/well of IL-2 was added to the medium 10 days later so that IL-2 became 125 U/ml in the final concentration. CTL activity of CTLs was tested on the 14th day, and CTL clones were expanded using the same method above.
as §1

[4] = test system: peptide-pulsed A24-LCL cells; experiment: IFN-gamma ELISPOT assay (positive wells); conditions: HLA-A24 peptides; as compared to the control
Procedure, shortened: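 PBMC-derived DCs from HLA-A*2402 and/or A*0201 donors, pulsed with 20 micro g/ml peptide plus 3 micro g/ml beta 2-microglobulin, stimulated autologous CD8+ T cells three times (days 0, 7, 14). On day 21, responders were tested against peptide-pulsed A24-LCL or T2 cells by IFN-gamma ELISPOT. Values are reported as positive wells/wells tested; CTL lines confirmed by ELISA.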

[5] = test system: 293T transfected with full length INHBB gene and HLA-A*2402; experiment: Specific CTL activity against transfected target cells; conditions: CTL line or clone raised by the peptide, vs control transfectants
Protocol: as §1, §2
The established CTL line raised against these peptides were examined for their ability to recognize the target cells expressing INHBB and HLA-A*2402.

peptide-pulsed T2 cells [6] = experiment: CTL line establishment, IFN-gamma ELISA; conditions: HLA-A02 peptides; vs target without peptide pulse
Protocol: CTLs were expanded in culture using the method similar to that described by Riddell S R, et al., (Walter E A et al., (1995) N Engl J Med 333:1038-44; Riddel S R, et al., (1996) Nature Med. 2:216-23.). A total 5×10^4 of CTLs were resuspended in 25 ml of AIM-V/5% AS with 2 kinds of human B-lymphoblastoid cell lines, inactivated by MMC, in the presence of 40 ng/ml of anti-CD3 monoclonal antibody (Pharmingen). One day after initiating the cultures, 120 IU/ml of IL-2 were added to the cultures. The cultures were fed with fresh AIM-V/5% AS containing 30 IU/ml of IL-2 on days 5, 8 and 11.
as §1
Positive well number indicates the number of wells where specific IFN-gamma production can be detected by IFN-gamma ELISPOT assay. 4 to 8 wells can be prepared from one donor. This is shown as (positive wells number/the number of whole wells tested by IFN-gamma ELISPOT assay). Positive CTL line indicates the number of CTL line established from positive wells. The generation of CTL line is determined by ELISA. This is shown as (established CTL line number/the number of positive wells tested by IFN-gamma ELISPOT assay). No positive donor is not defined by no detectable positive wells, but by no established CTL line. […] No data at positive donor number, positive well number and positive CTL line indicating “−” means that the peptides can't be synthesized for any reason.
CTLs were expanded in culture using the method similar to the one described by Riddell et al. (Walter E A et al., N Engl J Med 1995 Oct. 19, 333(16): 1038-44; Riddell S R et al., Nat Med 1996 Feb., 2(2): 216-23). A total of 5×10^4 CTLs were suspended in 25 ml of AIM-V/5% AS medium with 2 kinds of human B-lymphoblastoid cell lines, inactivated by MMC, in the presence of 40 ng/ml of anti-CD3 monoclonal antibody (Pharmingen). One day after initiating the cultures, 120 IU/ml of IL-2 were added to the cultures. The cultures were fed with fresh AIM-V/5% AS medium containing 30 IU/ml of IL-2 on days 5, 8 and 11 (Tanaka H et al., Br J Cancer 2001 Jan. 5, 84(1): 94-9; Umano Y et al., Br J Cancer 2001 Apr. 20, 84(8): 1052-7; Uchida N et al., Clin Cancer Res 2004 Dec. 15, 10(24): 8577-86; Suda T et al., Cancer Sci 2006 May, 97(5): 411-9; Watanabe T et al., Cancer Sci 2005 August, 96(8): 498-506).
Specifically, peptide-pulsed T2 (1×10^4/well) was prepared as stimulator cells. Cultured cells in 48 wells were used as responder cells. IFN-gamma ELISPOT assay and IFN-gamma ELISA assay were performed under manufacture procedure.

peptide-pulsed T2 cells [7] = experiment: CTL clones by limiting dilution, specific CTL activity; conditions: HLA-A02 peptides; vs target without peptide pulse
Protocol: as §3, §1

[8] = test system: COS7 transfected with full length TTK gene and HLA-A*0201; experiment: Specific CTL activity against transfected target cells; conditions: vs control transfectants
Protocol: as §1, §2
The established CTL clone raised against these peptides were examined for their ability to recognize the target cells endogenously expressing TTK and HLA-A*0201. […] COS7 transfected with full length TTK but HLA-A*0201, COS7 transfected HLA-A*0201 but not full length of TTK (or replaced full length HIG2 gene) and COS7 transfected with HLA-A*0201 and pulsed with different target epitope peptide, were prepared as controls.

peptide-pulsed T2 cells [9] = experiment: IFN-gamma ELISPOT assay (positive wells); conditions: HLA-A02 peptides; as compared to the control
Procedure, shortened: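 CD8+ T cells from HLA-A*2402 and/or HLA-A*0201 donors were stimulated 1:20 with autologous monocyte-derived DCs pulsed with 20 µg/ml peptide plus β2-microglobulin, in IL-7, with IL-2 added, restimulated on days 7 and 14. On day 21, IFN-γ ELISPOT against peptide-pulsed T2 or A24-LCL cells (1×10^4/well) scored wells as positive, with CTL lines confirmed by ELISA.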

Row | Substance | Establishment of CTL line, specific CTL activity against the peptide-pulsed target determined by ELISA [1] | IFN-gamma production by IFN-gamma ELISPOT assay [4] | Establishment of CTL line, specific CTL activity against the peptide-pulsed target determined by ELISA (peptide-pulsed T2 cells [6]) | CTL activities of CTL clones against the peptide-pulsed target (peptide-pulsed T2 cells [7]) | IFN-gamma production by IFN-gamma ELISPOT assay (peptide-pulsed T2 cells [9]) | also measured
1 | DYLNeWGSRF (DYLNEWGSRF; not fully specified; printed as DYLNeWGSRF) [SEQ ID NO: 30] | CTL lines were established | potent IFN-gamma production | – | – | – | Specific CTL activity against COS7 transfected with both CDH3 and HLA-A24 [2]: highest specific CTL activity; also recorded: high specific CTL activity; CTL activities of CTL clones against the peptide-pulsed target [3]: potent and specific CTL activities
2 | SEQ ID NO: 133: HLA-A*2402 binding 10-mer peptide derived from INHBB (LYLKLLPYVL) | CTL lines were established | potent IFN-gamma production | – | – | – | Specific CTL activity against 293T transfected with both INHBB and HLA-A24 ([5]; listed as INHBB-A24-10-180): highest specific CTL activity; also recorded: high specific CTL activity
3 | SEQ ID NO: 135: HLA-A*2402 binding 10-mer peptide derived from INHBB (RQQFFIDFRL) | CTL lines were established | potent IFN-gamma production | – | – | – | Specific CTL activity against 293T transfected with both INHBB and HLA-A24 ([5]; listed as INHBB-A24-10-305): highest specific CTL activity; also recorded: high specific CTL activity; CTL activities of CTL clones against the peptide-pulsed target [3]: potent and specific CTL activities
4 | SEQ ID NO: 137: HLA-A*2402 binding 10-mer peptide derived from INHBB (RALGAACLLL) | CTL lines were established | potent IFN-gamma production | – | – | – | Specific CTL activity against 293T transfected with both INHBB and HLA-A24 ([5]; listed as INHBB-A24-10-7): highest specific CTL activity
5 | SEQ ID NO: 227: HLA-A*0201 binding 9-mer peptide derived from TTK (YMSCFRTPV) | – | – | specific response | potent and specific CTL activities | potent IFN-gamma production | Specific CTL activity against COS7 transfected with both TTK and HLA-A02 ([8]; listed as TTK-A02-9-462): high specific CTL activity; Specific CTL activity against COS7 transfected with both TTK and HLA-A02 ([8]; listed as TTK-A2-9-462): highest specific CTL activity
6 | SEQ ID NO: 228: HLA-A*0201 binding 9-mer peptide derived from TTK (KQIYAIKYV) | – | – | CTL line and clones were established | potent and specific CTL activities | potent IFN-gamma production | Specific CTL activity against COS7 transfected with both TTK and HLA-A02 ([8]; listed as TTK-A02-9-547): highest specific CTL activity
7 | SEQ ID NO: 233: HLA-A*0201 binding 9-mer peptide derived from TTK (SLGCILYYM) | – | – | CTL line and clones were established | potent and specific CTL activities | potent IFN-gamma production | Specific CTL activity against COS7 transfected with both TTK and HLA-A02 ([8]; listed as TTK-A02-9-719): high specific CTL activity; Specific CTL activity against COS7 transfected with both TTK and HLA-A02 ([8]; listed as TTK-A2-9-719): highest specific CTL activity
8 | SEQ ID NO: 254: HLA-A*0201 binding 10-mer peptide derived from TTK (YMSCFRTPVV) | – | – | CTL line and three clones were established | potent and specific CTL activities | potent IFN-gamma production | Specific CTL activity against COS7 transfected with both TTK and HLA-A02 ([8]; listed as TTK-A02-10-462): specific CTL activity; Specific CTL activity against COS7 transfected with both TTK and HLA-A02 ([8]; listed as TTK-A2-10-462): highest specific CTL activity
